Measured values from patent US8415378B2, “Isoxazol-3(2H)-one analogs as therapeutic agents” (AstraZeneca AB, priority 2009, dated 2013).

The compounds below were run against T1, human Glu-plasminogen (Homo sapiens, UniProt P00747) (assay: Clot-lysis buffer assay).
T1 construct: human Glu-plasminogen; purchased Chromogenix, Italy
T1 sequence (P00747 20-810 limits assumed): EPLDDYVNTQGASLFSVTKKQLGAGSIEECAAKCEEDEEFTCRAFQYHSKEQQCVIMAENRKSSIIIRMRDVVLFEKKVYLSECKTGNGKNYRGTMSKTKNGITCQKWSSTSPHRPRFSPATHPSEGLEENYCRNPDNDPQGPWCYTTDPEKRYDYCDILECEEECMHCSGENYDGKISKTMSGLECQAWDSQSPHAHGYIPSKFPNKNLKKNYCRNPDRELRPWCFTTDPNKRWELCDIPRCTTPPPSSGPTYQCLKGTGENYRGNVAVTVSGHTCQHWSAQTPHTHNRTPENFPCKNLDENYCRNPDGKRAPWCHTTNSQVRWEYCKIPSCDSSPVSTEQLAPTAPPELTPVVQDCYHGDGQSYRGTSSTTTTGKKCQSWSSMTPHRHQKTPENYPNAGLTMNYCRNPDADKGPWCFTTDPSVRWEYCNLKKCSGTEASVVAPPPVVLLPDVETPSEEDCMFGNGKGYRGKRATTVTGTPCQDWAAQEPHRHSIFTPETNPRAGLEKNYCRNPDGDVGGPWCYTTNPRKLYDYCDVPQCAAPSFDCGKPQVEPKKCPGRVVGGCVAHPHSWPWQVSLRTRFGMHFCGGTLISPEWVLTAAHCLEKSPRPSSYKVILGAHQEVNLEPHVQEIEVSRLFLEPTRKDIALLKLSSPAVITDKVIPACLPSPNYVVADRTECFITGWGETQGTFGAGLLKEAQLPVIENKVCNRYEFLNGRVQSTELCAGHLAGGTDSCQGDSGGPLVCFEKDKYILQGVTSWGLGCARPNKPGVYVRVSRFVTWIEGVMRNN
Type: biochemical
Procedure: The assay method used for evaluating biological activity of the compounds according to the invention was Clot-lysis buffer assay.
Tested substance were added to the reaction mixture in 10% DMSO. Reaction was started by the addition of thrombin.
Measured according to the Clot-lysis buffer assay described above.
O=c1cc([C@H]2CCN[C@@H](Cc3cc(F)c(F)c(F)c3)C2)o[nH]1 [Example 143, 5-((2R,4S)-2-(3,4,5-Trifluorobenzyl)piperidin-4-yl)isoxazol-3(2H)-one] showed an IC50 of 0.9 µM.
In the case of O=c1cc([C@@H]2CCN[C@H](Cc3cc(F)c(F)c(F)c3)C2)o[nH]1 [Example 144, 5-((2S,4R)-2-(3,4,5-Trifluorobenzyl)piperidin-4-yl)isoxazol-3(2H)-one], the IC50 is reported as 88.2 µM.
CC(C)(C)c1cc(C[C@H]2C[C@@H](c3cc(=O)[nH]o3)CCN2)cc(C(C)(C)C)c1 [Example 146, 5-((2R,4S)-2-(3,5-Di-tert-butylbenzyl)piperidin-4-yl)isoxazol-3(2H)-one] was tested, and the IC50 was 6.6 µM.
CC(C)(C)c1cc(C[C@@H]2C[C@H](c3cc(=O)[nH]o3)CCN2)cc(C(C)(C)C)c1 [Example 147, 5-((2S,4R)-2-(3,5-Di-tert-butylbenzyl)piperidin-4-yl)isoxazol-3(2H)-one] was tested, and the IC50 was 44.6 µM.
